Values belong to the molecule of their own block, whether it stands above or below them.
Assays:
[1] = Half life in ICR mouse at 30 mg/kg, po measured after 24 hrs by LC-MS/MS analysis; type: ADME, organism-based; conditions: in vivo
[2] = Tmax in ICR mouse at 30 mg/kg, po measured after 24 hrs by LC-MS/MS analysis; type: ADME, organism-based; conditions: in vivo
[3] = Cmax in ICR mouse at 30 mg/kg, po measured after 24 hrs by LC-MS/MS analysis; type: ADME, organism-based; parameters: time 24 hrs, dose 30 mg/kg, route po; conditions: in vivo
[4] = AUClast in ICR mouse at 30 mg/kg, po measured after 24 hrs by LC-MS/MS analysis; type: ADME, organism-based; parameters: dose 30 mg/kg, time 24 hrs, route po; conditions: in vivo
[5] = Metabolic stability in human liver microsomes assessed as half life; type: ADME, Microsome
[6] = Metabolic stability in rat liver microsomes assessed as half life; type: ADME, Microsome
[7] = Metabolic stability in mouse liver microsomes assessed as half life; type: ADME, Microsome
[8] = Metabolic stability in human liver microsomes assessed as intrinsic clearance; type: ADME, Microsome
[9] = Metabolic stability in rat liver microsomes assessed as intrinsic clearance; type: ADME, Microsome
[10] = Metabolic stability in mouse liver microsomes assessed as intrinsic clearance; type: ADME, Microsome
[11] = Half life in ICR mouse serum at 10 mg/kg, po measured after 24 hrs by LC-MS/MS analysis; type: ADME, organism-based
[12] = Tmax in ICR mouse serum at 10 mg/kg, po measured after 24 hrs by LC-MS/MS analysis; type: ADME, organism-based
[13] = Tmax in ICR mouse liver at 10 mg/kg, po measured after 24 hrs by LC-MS/MS analysis; type: ADME, organism-based
[14] = Cmax in ICR mouse serum at 10 mg/kg, po measured after 24 hrs by LC-MS/MS analysis; type: ADME, organism-based; parameters: dose 10 mg/kg, time 24 hrs, route po
[15] = Cmax in ICR mouse liver at 10 mg/kg, po measured after 24 hrs by LC-MS/MS analysis; type: ADME, organism-based; parameters: dose 10 mg/kg, time 24 hrs, route po
[16] = AUClast in ICR mouse serum at 10 mg/kg, po measured after 24 hrs by LC-MS/MS analysis; type: ADME, organism-based; parameters: time 24 hrs, dose 10 mg/kg, route po
[17] = AUClast in ICR mouse liver at 10 mg/kg, po measured after 24 hrs by LC-MS/MS analysis; type: ADME, organism-based; conditions: in vivo
[18] = Toxicity in ICR mouse assessed as decrease in serum total cholesterol level at 30 mg/kg, po administered as single dose measured after 24 hrs by automated biochemical analyzer; type: organism-based; parameters: scale not given: the % may be the effect or the level left; conditions: in vivo
[19] = Toxicity in ICR mouse assessed as decrease in serum total cholesterol level at 3 mg/kg, po administered as single dose measured after 24 hrs by automated biochemical analyzer; type: organism-based; parameters: scale not given: the % may be the effect or the level left; conditions: in vivo
[20] = Toxicity in ICR mouse assessed as decrease in serum total cholesterol level at 10 mg/kg, po administered as single dose measured after 24 hrs by automated biochemical analyzer; type: organism-based; parameters: scale not given: the % may be the effect or the level left; conditions: in vivo
[21] = Toxicity in ICR mouse assessed as decrease in serum total LDL-cholesterol level at 3 mg/kg, po administered as single dose measured after 24 hrs by automated biochemical analyzer; type: organism-based; parameters: scale not given: the % may be the effect or the level left; conditions: in vivo
[22] = Toxicity in ICR mouse assessed as decrease in serum total LDL-cholesterol level at 10 mg/kg, po administered as single dose measured after 24 hrs by automated biochemical analyzer; type: organism-based; parameters: scale not given: the % may be the effect or the level left; conditions: in vivo
[23] = Hepatotoxicity in ICR mouse assessed as upregulation of Dio1 mRNA expression in liver by measuring fold change at 3 to 10 mg/kg, po administered as single dose by qRT-PCR analysis; type: toxicity, organism-based; conditions: in vivo, dose 3-10 mg/kg
[24] = Hepatotoxicity in ICR mouse assessed as upregulation of THRSP mRNA expression in liver by measuring fold change at 3 to 10 mg/kg, po administered as single dose by qRT-PCR analysis; type: toxicity, organism-based; conditions: in vivo, dose 3-10 mg/kg
[25] = Hepatotoxicity in ICR mouse assessed as upregulation of Me1 mRNA expression in liver by measuring fold change at 3 to 10 mg/kg, po administered as single dose by qRT-PCR analysis; type: toxicity, organism-based; conditions: in vivo, dose 3-10 mg/kg
[26] = Cardiotoxicity in ICR mouse assessed as changes in Myh6 mRNA expression in heart at 3 to 10 mg/kg, po administered as single dose by qRT-PCR analysis; type: toxicity, organism-based; conditions: in vivo, dose 3-10 mg/kg
[27] = Cardiotoxicity in ICR mouse assessed as changes in Myh7 mRNA expression in heart at 3 to 10 mg/kg, po administered as single dose by qRT-PCR analysis; type: toxicity, organism-based; conditions: in vivo, dose 3-10 mg/kg
[28] = Cardiotoxicity in ICR mouse assessed as changes in Myh6/Myh7 ratio in heart at 3 to 10 mg/kg, po administered as single dose by qRT-PCR analysis; type: toxicity, organism-based; conditions: in vivo, dose 3-10 mg/kg
[29] = Toxicity in ICR mouse assessed as decrease in serum total cholesterol level at 1 mg/kg, po administered as single dose measured after 24 hrs by automated biochemical analyzer; type: organism-based; parameters: scale not given: the % may be the effect or the level left; conditions: in vivo
[30] = Toxicity in ICR mouse assessed as decrease in serum total LDL-cholesterol level at 1 mg/kg, po administered as single dose measured after 24 hrs by automated biochemical analyzer; type: organism-based; parameters: scale not given: the % may be the effect or the level left; conditions: in vivo
[31] = Cardiotoxicity in ICR mouse assessed as upregulation of Myh6 mRNA expression in heart at 1 mg/kg, po administered as single dose by qRT-PCR analysis; type: toxicity, organism-based; conditions: in vivo

half-life [1]: 1000 min | Tmax [2]: 6 h | Cmax [3]: 12100 ng/mL | AUC(0-t) at 24 h [4]: 168 µg·h/mL | half-life [5]: 79 min | half-life [6]: 245 min | half-life [7]: 233 min | CLH [8]: 26.5 mL/min/g | CLH [9]: 8.6 mL/min/g | CLH [10]: 9 mL/min/g | half-life [11]: 546 min | Tmax [12]: 2.7 h | Tmax [13]: 4 h | Cmax [14]: 5710 ng/mL | Cmax [15]: 24300 ng/g | AUC(0-t) at 24 h [16]: 57100 ng·h/mL | AUClast [17]: 349501 ng·h/g
SMILES: CC(C)c1cc(Oc2c(Cl)cc(-n3nc(C#N)c(=O)[nH]c3=O)cc2Cl)n[nH]c1=O [RESMETIROM]
Activity [18]: 20.4% | Activity [19]: 27.2% | Activity [20]: 36.9% | Activity [21]: 39.3% | Activity [22]: 39.8% | fold change (FC) [23]: 12 | fold change (FC) [24]: 10 | fold change (FC) [25]: 1.8 | Activity [26]: Non-Toxic | Activity [27]: Non-Toxic | Activity [28]: Non-Toxic

SMILES: N[C@@H](Cc1cc(I)c(Oc2ccc(O)c(I)c2)c(I)c1)C(=O)O [LIOTHYRONINE]
Activity [29]: 44% | Activity [30]: 61.9% | Activity [31]: Toxic

— ChEMBL document CHEMBL5247640 (J Med Chem, 2023)
